From patent US20230017045A1, “PYRIDINE AND PYRIMIDINE CARBOXYLATE HERBICIDES AND METHODS OF USE THEREOF” (Dow AgroSciences LLC, priority 2017, published 2023)
Where two headings read alike, the source gives them in different places.

Tested on: test plant species
Assay: Post-emergent herbicidal activity test (greenhouse, foliar spray, visual growth reduction)
Type: in vivo
Conditions: post-emergence, 336 h, 140 g ai/ha
In short: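 Visual scoring 14 d after treatment (0 = no injury, 100 = complete control) against nontreated and solvent-blank plants gave percent growth reduction. Foliar application used a track sprayer delivering 187 L/ha to seedlings at first or second true leaf stage, grown at 23–29 °C day, ~15 h photoperiod.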

[1] = ECHCG: barnyardgrass (Echinochloa crus-galli), 14 days after application, read-out: Visual Growth Reduction (%) 14 Days After Application, ECHCG
[2] = IPOHE: ivy-leaf morning glory (Ipomoea hederacea), 14 days after application, read-out: Visual Growth Reduction (%) 14 Days After Application, IPOHE
[3] = KCHSC: kochia (Bassia scoparia), 14 days after application, read-out: Visual Growth Reduction (%) 14 Days After Application, KCHSC
[4] = ORYSA: rice (Oryza sativa), 14 days after application, read-out: Visual Growth Reduction (%) 14 Days After Application, ORYSA
[5] = SETFA: giant foxtail (Setaria faberi), 14 days after application, read-out: Visual Growth Reduction (%) 14 Days After Application, SETFA
[6] = SORVU: grain sorghum (Sorghum vulgare), 14 days after application, read-out: Visual Growth Reduction (%) 14 Days After Application, SORVU
[7] = STEME: common chickweed (Stellaria media), 14 days after application, read-out: Visual Growth Reduction (%) 14 Days After Application, STEME
[8] = TRZAS: wheat, spring (Triticum aestivum), 14 days after application, read-out: Visual Growth Reduction (%) 14 Days After Application, TRZAS
[9] = blackgrass (Alopecurus myosuroides), 14 Days After Application, read-out: Visual Growth Reduction (%) ALOMY
[10] = canada thistle (Cirsium arvense), 14 Days After Application, read-out: Visual Growth Reduction (%) CIRAR
[11] = crabgrass (Digitaria sanguinalis), 14 Days After Application, read-out: Visual Growth Reduction (%) DIGSA
[12] = lambsquarters (Chenopodium album), 14 Days After Application, read-out: Visual Growth Reduction (%) CHEAL
[13] = redroot pigweed (Amaranthus retroflexus), 14 Days After Application, read-out: Visual Growth Reduction (%) AMARE
[14] = wild oat (Avena fatua), 14 Days After Application, read-out: Visual Growth Reduction (%) AVEFA
[15] = yellow nutsedge (Cyperus esculentus), 14 Days After Application, read-out: Visual Growth Reduction (%) CYPES
[16] = ALOMY: blackgrass (Alopecurus myosuroides), 14 days after application, read-out: Visual Growth Reduction (%) 14 Days After Application, ALOMY
[17] = AMARE: redroot pigweed (Amaranthus retroflexus), 14 days after application, read-out: Visual Growth Reduction (%) 14 Days After Application, AMARE
[18] = AVEFA: wild oat (Avena fatua), 14 days after application, read-out: Visual Growth Reduction (%) 14 Days After Application, AVEFA
[19] = CHEAL: lambsquarters (Chenopodium album), 14 days after application, read-out: Visual Growth Reduction (%) 14 Days After Application, CHEAL
[20] = CIRAR: canada thistle (Cirsium arvense), 14 days after application, read-out: Visual Growth Reduction (%) 14 Days After Application, CIRAR
[21] = CYPES: yellow nutsedge (Cyperus esculentus), 14 days after application, read-out: Visual Growth Reduction (%) 14 Days After Application, CYPES
[22] = DIGSA: crabgrass (Digitaria sanguinalis), 14 days after application, read-out: Visual Growth Reduction (%) 14 Days After Application, DIGSA

| SMILES | pest or weed control at 140 g/ha [1] | pest or weed control at 140 g/ha [2] | pest or weed control at 140 g/ha [3] | pest or weed control at 140 g/ha [4] | pest or weed control at 140 g/ha [5] | pest or weed control at 140 g/ha [6] | pest or weed control at 140 g/ha [7] | pest or weed control at 140 g/ha [8] | pest or weed control at 140 g/ha [9] | pest or weed control at 140 g/ha [10] | pest or weed control at 140 g/ha [11] | pest or weed control at 140 g/ha [12] | pest or weed control at 140 g/ha [13] | pest or weed control at 140 g/ha [14] | pest or weed control at 140 g/ha [15] | pest or weed control at 140 g/ha [16] | pest or weed control at 140 g/ha [17] | pest or weed control at 140 g/ha [18] | pest or weed control at 140 g/ha [19] | pest or weed control at 140 g/ha [20] | other results |
| --- | --- | --- | --- | --- | --- | --- | --- | --- | --- | --- | --- | --- | --- | --- | --- | --- | --- | --- | --- | --- | --- |
| COC(=O)c1nc(-c2cc([N+](=O)[O-])c(C(F)(F)F)cc2Cl)c(F)cc1Cl [F322, Methyl 3-chloro-6-(2-chloro-5-nitro-4-(trifluoromethyl)phenyl)-5-fluoropicolinate] | 0 to 29% | 95 to 100% | 0 to 29% | 0 to 29% | 0 to 29% | 0 to 29% | 0 to 29% | 0 to 29% | 0 to 29% | 30 to 44% | 0 to 29% | 75 to 84% | 60 to 74% | 0 to 29% | 0 to 29% | – | – | – | – | – | – |
| COC(=O)c1nc(-c2ccc3cc[nH]c3c2)c(F)cc1Cl [F320, Methyl 3-chloro-5-fluoro-6-(1H-indol-6-yl)picolinate] | 0 to 29% | 60 to 74% | 0 to 29% | 0 to 29% | 0 to 29% | 0 to 29% | 0 to 29% | 0 to 29% | 0 to 29% | 30 to 44% | 0 to 29% | 60 to 74% | 0 to 29% | 0 to 29% | 0 to 29% | – | – | – | – | – | – |
| COC(=O)c1nc(-c2cc(Cl)cnc2OC)ccc1Cl [F129, Methyl 5,5′-dichloro-2′-methoxy-[2,3′-bipyridine-6-carboxylate] | 0 to 29% | 0 to 29% | 0 to 29% | 0 to 29% | 0 to 29% | 0 to 29% | 0 to 29% | 0 to 29% | – | – | – | – | – | – | – | 0 to 29% | 0 to 29% | 0 to 29% | 0 to 29% | 0 to 29% | pest or weed control at 140 g/ha [21]: 0 to 29%; pest or weed control at 140 g/ha [22]: 0 to 29% |
| O=C(O)c1nc(-c2ccc3[nH]ccc3c2)c(F)cc1Cl [F199, 3-Chloro-5-fluoro-6-(1H-indol-5-yl)picolinic acid] | 0 to 29% | 0 to 29% | 0 to 29% | 0 to 29% | 0 to 29% | 0 to 29% | 0 to 29% | 0 to 29% | – | – | – | – | – | – | – | 0 to 29% | 0 to 29% | 0 to 29% | 30 to 44% | 0 to 29% | pest or weed control at 140 g/ha [21]: 0 to 29%; pest or weed control at 140 g/ha [22]: 0 to 29% |
| CO/N=C/c1c(C(F)(F)F)ccc(-c2ccc(Cl)c(C(=O)OC)n2)c1Cl [F141, Methyl (E)-3-chloro-6-(2-chloro-3-((methoxyimino)methyl)-4-(trifluoromethyl)phenyl)picolinate] | 0 to 29% | 0 to 29% | 60 to 74% | 0 to 29% | 0 to 29% | 0 to 29% | 0 to 29% | 0 to 29% | – | – | – | – | – | – | – | 0 to 29% | 75 to 84% | 0 to 29% | 0 to 29% | 0 to 29% | pest or weed control at 140 g/ha [21]: 0 to 29%; pest or weed control at 140 g/ha [22]: 60 to 74% |
| COC(=O)c1nc(-c2ccc(C(F)(F)C(N)=O)cc2Cl)ccc1Cl [F176, Methyl 6-(4-(2-amino-1,1-difluoro-2-oxoethyl)-2-chlorophenyl)-3-chloropicolinate] | 0 to 29% | 0 to 29% | 0 to 29% | 0 to 29% | 0 to 29% | 0 to 29% | 0 to 29% | 0 to 29% | – | – | – | – | – | – | – | 0 to 29% | 0 to 29% | 0 to 29% | 0 to 29% | 0 to 29% | pest or weed control at 140 g/ha [21]: 0 to 29%; pest or weed control at 140 g/ha [22]: 0 to 29% |
| Cc1cc(C(F)(F)F)ccc1-c1nc(C(=O)O)c(Cl)cc1F [F267, 3-Chloro-5-fluoro-6-(2-methyl-4-(trifluoromethyl)phenyl) picolinic acid] | 75 to 84% | 95 to 100% | 60 to 74% | 0 to 29% | 85 to 94% | 95 to 100% | 0 to 29% | 60 to 74% | 30 to 44% | 85 to 94% | 85 to 94% | 95 to 100% | 95 to 100% | 45 to 59% | 0 to 29% | – | – | – | – | – | – |
| COC(=O)c1nc(-c2ccc(OC(F)F)cc2F)c(F)cc1Cl [F221, Methyl 3-chloro-6-(4-(difluoromethoxy)-2-fluorophenyl)-5-fluoropicolinate] | 85 to 94% | 95 to 100% | 85 to 94% | 0 to 29% | 85 to 94% | 95 to 100% | 0 to 29% | 75 to 84% | 75 to 84% | 95 to 100% | 95 to 100% | 95 to 100% | 95 to 100% | 75 to 84% | 75 to 84% | – | – | – | – | – | – |
| O=C(O)c1nc(-c2cc(F)c(C(F)(F)F)cc2Cl)c(F)cc1Cl [F254, 3-Chloro-6-(2-chloro-5-fluoro-4-(trifluoromethyl)phenyl)-5-fluoropicolinic acid] | 95 to 100% | 95 to 100% | 85 to 94% | 75 to 84% | 95 to 100% | 95 to 100% | 95 to 100% | 95 to 100% | 85 to 94% | 95 to 100% | 95 to 100% | 95 to 100% | 95 to 100% | 95 to 100% | 60 to 74% | – | – | – | – | – | – |
| COC(=O)c1nc(-c2cc(F)c(C)cc2Cl)ccc1Cl [F46, Methyl 3-chloro-6-(2-chloro-5-fluoro-4-methylphenyl) picolinate] | 0 to 29% | – | 0 to 29% | 0 to 29% | 0 to 29% | 0 to 29% | 0 to 29% | 0 to 29% | – | – | – | – | – | – | – | 0 to 29% | 0 to 29% | 0 to 29% | 60 to 74% | 0 to 29% | pest or weed control at 140 g/ha [21]: 0 to 29%; pest or weed control at 140 g/ha [22]: 0 to 29% |
